Laboratory results as given in patent US20100056565A1, “Heterocyclic Derivatives as M3 Muscarinic Receptors” (priority 2007, published 2010).
Structures can show the parent of a compound that is named as a salt. Where two headings read alike, the source gives them in different places.

Columns and labels:
[1] = target: T1, Recombinant human M3 receptor (Homo sapiens, UniProt P20309); assay: biochemical; type: binding
T1 construct: expressed in transfected cells; host or cells: CHO-K1 cells (membranes)

[2] = system: Isolated Guinea Pig Trachea; assay: Potency in isolated guinea pig trachea, inhibition of EFS-stimulated contraction; conditions: Cavia porcellus, electrical field stimulation
Protocol: Experiments were carried out at 37° C. in modified Krebs-Henseleit solution, (114 mM NaCl, 15 mM NaHCO3, 1 mM MgSO4, 1.3 mM CaCl2, 4.7 mM KCl, 11.5 mM glucose and 1.2 mM KH2PO4, pH 7.4) gassed with 95% O2/5% CO2. Indomethacin was added to a final concentration of 3 μM
Tracheae were removed from adult male Dunkin Hartley Guinea pigs and dissected free of adherent tissue before being cut open longitudinally in a line opposite the muscle. Individual strips of 2-3 cartilage rings in width were cut and suspended using cotton thread in 10 mL water-jacketed organ baths and attached to a force transducer ensuring that the tissue is located between two platinum electrodes. Responses were recorded via a MP100W/Acknowledge data acquisition system connected to a PC. Tissues were equilibrated for one hour under a resting tone of 1 g and were then subjected to electrical field stimulation at a frequency of 80 Hz with a pulse width of 0.1 ms, a unipolar pulse, triggered every 2 minutes. A “voltage-response” curve was generated for each tissue and a submaximal voltage then applied to every piece of tissue according to its own response to voltage. Tissues were washed with Krebs solution and allowed to stabilize under stimulation prior to addition of test compound. Concentration response curves were obtained by a cumulative addition of test compound in half-log increments. Once the response to each addition had reached a plateau the next addition was made. Percentage inhibition of EFS-stimulated contraction is calculated for each concentration of each compound added and dose response curves constructed using Graphpad Prism software and the IC50 calculated for each compound.

[3] = target: T2, human muscarinic receptors (M3) (Homo sapiens, UniProt P20309); assay: Muscarinic receptor radioligand binding assay, [3H]-NMS, filter plate format
T2 construct: purchased
Protocol: Radioligand binding studies utilising [^3H]-N-methyl scopolamine ([^3H]-NMS) and commercially available cell membranes expressing the human muscarinic receptors (M2 and M3) were used to assess the affinity of muscarinic antagonists for M2 and M3 receptors. Membranes in TRIS buffer were incubated in 96-well plates with [^3H]-NMS and M3 antagonist at various concentrations for 3 hours. Membranes and bound radioligand were then harvested by filtration and allowed to dry overnight. Scintillation fluid was then added and the bound radioligand counted using a Canberra Packard Topcount scintillation counter

[4] = M3, SPA format assay, read-out: Ki in the SPA format assay
[5] = SPA format, read-out: M3 Ki (SPA format)
[6] = filter plate format, read-out: M3 Ki (Filter plate format)
[7] = M3, filter plate assay, read-out: Ki value in the filter plate assay

T2 sequence (P20309 whole entry): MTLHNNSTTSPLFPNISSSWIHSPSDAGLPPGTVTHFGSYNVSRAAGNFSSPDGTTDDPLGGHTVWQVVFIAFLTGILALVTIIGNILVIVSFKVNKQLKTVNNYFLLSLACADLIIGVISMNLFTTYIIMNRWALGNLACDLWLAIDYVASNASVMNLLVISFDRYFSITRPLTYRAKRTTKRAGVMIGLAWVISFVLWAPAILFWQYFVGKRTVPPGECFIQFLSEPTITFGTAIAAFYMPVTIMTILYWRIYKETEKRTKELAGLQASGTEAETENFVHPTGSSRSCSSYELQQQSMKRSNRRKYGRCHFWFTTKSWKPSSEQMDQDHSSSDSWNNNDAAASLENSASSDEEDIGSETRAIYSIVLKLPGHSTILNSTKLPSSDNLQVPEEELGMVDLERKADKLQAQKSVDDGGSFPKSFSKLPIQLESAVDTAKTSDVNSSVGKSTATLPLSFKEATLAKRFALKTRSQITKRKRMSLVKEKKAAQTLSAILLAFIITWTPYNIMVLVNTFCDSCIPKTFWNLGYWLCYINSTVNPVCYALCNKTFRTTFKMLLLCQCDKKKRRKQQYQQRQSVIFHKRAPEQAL
T1 sequence (P20309 whole entry): as above

Row | Compound | Ki [1, 4] [nM] | Ki [1, 5] [nM] | IC50 [2] [nM] | Ki [3, 6] [nM] | Ki [3, 7] [nM] | Ki ([3]; M3 Ki (Filter plate format), filter plate format) [nM] | Ki ([1]; M3 Ki (SPA format, SPA format)) [nM]
1 | OC(c1ccccc1)(c1cc(C[N+]23CCC(CC2)[C@@H](Sc2ccccc2)C3)on1)C1CCCCC1 (single isomer, unassigned) [Example 70, 1-[3-(Cyclohexyl-hydroxy-phenyl-methyl)-isoxazol-5-ylmethyl]-3-phenylsulfanyl-1-azonia-bicyclo[2.2.2]octane; chloride] | 0.65 | < 5 | 2.8 | – | – | – | –
2 | OC(c1ccccc1)(c1ccccc1)c1ncc(C[N+]23CCC(CC2)C(Oc2ccccc2)C3)o1 (single isomer, unassigned; enantiomer 1) [Example 1, 1-[2-(Hydroxy-diphenyl-methyl)-oxazol-5-ylmethyl]-3-phenoxy-1-azoniabicyclo[2.2.2]octane bromide, enantiomer 1] | – | > 20 | – | > 20 | – | – | –
3 | OC(c1ccccc1)(c1ccccc1)c1ncc(C[N+]23CCC(CC2)C(Oc2ccccc2)C3)o1 (single isomer, unassigned; enantiomer 2) [Example 2, 1-[2-(Hydroxy-diphenyl-methyl)-oxazol-5-ylmethyl]-3-phenoxy-1-azoniabicyclo[2.2.2]octane bromide, enantiomer 2] | – | < 5 | – | < 5 | 0.9 | – | –
4 | OC(c1ccccc1)(c1ncc(C[N+]23CCC(CC2)C(Oc2ccccc2)C3)o1)C1CCCCC1 (single isomer, unassigned; enantiomer 2) [Example 4, 1-[2-[(RS)—(Cyclohexyl-hydroxy-phenyl-methyl)]-oxazol-5-ylmethyl]-3-phenoxy-1-azonia-bicyclo[2.2.2]octane bromide, enantiomer 2] | – | – | – | < 5 | 2 | – | –
5 | O=C(O[C@@H]1C[N+]2(Cc3cnc([C@](O)(c4ccccc4)C4CCCCC4)o3)CCC1CC2)c1ccccc1 [Example 10, (S)-3-benzoyloxy-1-[2-((R)-cyclohexyl-hydroxy-phenyl-methyl)-oxazol-5-ylmethyl]-1-azonia-bicyclo[2.2.2]octane; formate] | – | – | – | – | – | 5 to 20 | 5 to 20
6 | O[C@](c1ccccc1)(c1ncc(C[N+]23CCC(c4ccccc4)(CC2)CC3)o1)C1CCCCC1 [Example 11, 1-[2-((R)-cyclohexyl-hydroxy-phenyl-methyl)-oxazol-5-ylmethyl]-4-phenyl-1-azonia-bicyclo[2.2.2]octane; formate] | – | > 20 | – | > 20 | – | – | –
7 | O[C@](c1ccccc1)(c1ncc(C[N+]23CCC(CC2)[C@@H](COc2ccccc2)C3)o1)C1CCCCC1 [Example 25, (R)-1-[2-((R)—Cyclohexyl-hydroxy-phenyl-methyl)-oxazol-5-ylmethyl]-3-phenoxymethyl-1-azonia-bicyclo[2.2.2]octane; bromide] | 0.13 | < 5 | 1.9 | – | – | – | –
8 | O[C@](c1ccccc1)(c1ncc(C[N+]23CCC(CC2)[C@@H](OCc2ccccc2)C3)o1)C1CCCC1 [Example 42, (R)-3-benzyloxy-1-[2-((R)-cyclopentyl-hydroxy-phenyl-methyl)-oxazol-5-ylmethyl]-1-azonia-bicyclo[2.2.2]octane; formate] | 0.09 | < 5 | 0.7 | – | – | – | –
9 | OC(c1ccccc1)(c1ccccc1)c1noc(C[N+]23CCC(CC2)[C@@H](Oc2ccc(F)cc2)C3)n1 [Example 95, (R)-3-(4-Fluoro-phenoxy)-1-[3-(hydroxy-diphenyl-methyl)-[1,2,4]oxadiazol-5-ylmethyl]-1-azonia-bicyclo[2.2.2]octane; chloride] | 0.17 | < 5 | 0.6 | – | – | – | –
